# Experimental data: patent publication US20220160652A1, “USE OF VITAMIN K IN COMBINATION WITH ANTICOAGULANTS” (KAYDENCE PHARMA AS, priority 2019, published 2022)
# Key:
# Sprague-Dawley rats = assay: T-TAS thrombus formation in whole blood of treated Sprague-Dawley rats; type: in vivo, rat; conditions: added to dabigatran and to rivaroxaban
# Protocol: This experiment was conducted in order to evaluate the effects of vitamin K2 (MK-7) on the anticoagulant activity of the new oral anticoagulants (NOAC) rivaroxaban and dabigatran using the T-TAS Total Thrombus-formation Analysis System. The T-TAS Total Thrombus-formation Analysis System is a microchip-based flow chamber system capable of evaluating whole-blood thrombogenicity. It is a useful tool in monitoring the efficacy of anticoagulants on thrombus formation and predicting the risk of bleeding complications. To perform the study, 45 wild-type male Sprague-Dawley and 45 transgenic male Ren-2 rats [TGR(mREN-2)27] at the age of 10-11 weeks at the beginning of the treatment period were purchased from animal facility IKEM-CEM Institute of Clinical and Experimental Medicine (Prague, Czech Republic). All animals in the experiment were housed in individually ventilated cages (2-3 rats per cage) and kept in the animal rooms of JCET at a relative humidity of 55±10%, a temperature of 22±2 ° C., and a light cycle of 7 AM to 7 PM. The rats had free access to food and water. After delivery, animals were randomly divided into 10 experimental groups (5 or 10 rats per group), as indicated below in Table 1. Four days before the start of the treatment, the first part of animals' body weight and food intake was measured in selected representative three cages (rats n=9) to calculate the appropriate amount of tested compounds required for addition to the diet to obtain the dosing indicated in Table 1. It was estimated that food intake was approximately 30 g of chow per rat per day. […] The body mass of the rats was measured at the beginning and at the end of treatment. At the beginning and at the end of treatment, the food intake per day was measured in representative group of animals to monitor the daily dosing of tested compounds (per kg of body mass). The thrombus formation in vitro was measured in whole blood using a microchip-based flow chamber system according to manufacturers' protocol (Total Thrombus-formation Analyser System, T-TAS; Fujimori Kogyo Co., Ltd., Tokyo, Japan). […]
# VSMCs [1] = assay: Vitamin K2 (MK-7) effect on ATP over time; type: cell-based; conditions: 10 μM, indicated time points
# Protocol: This study was performed to investigate the effect of vitamin K2 (MK-7) on ATP over time. It is known that all cells, including VSMCs, proliferate. The term cell growth is used in the contexts of biological cell development and cell division (reproduction). When used in the context of cell division, it refers to growth of cell populations, where a cell, known as the “mother cell,” grows and divides to produce two “daughter cells” (M phase). When used in the context of cell development, the term refers to increase in cytoplasmic and organelle volume (G1 phase), as well as increase in genetic material (G2 phase) following the replication during S phase. When a cell is quiescent, this phase is called G0. Cell populations go through a particular type of exponential growth called doubling. Each generation of cells should be twice as numerous as the previous generation. However, the number of generations only gives a maximum figure as not all cells survive in each generation.
# To perform this study, first, VSCMs (5000 cells/well) were plated in 96-well plates and left to adhere overnight. […] Next, ATP was measured using mammalian lysis buffer for 5 minutes, after which 50 μL ATP substrate solution was added to the wells and incubated for 10 minutes in a dark environment. Finally, medium was transferred to a white plate to measure luminescence.
# VSMCs [2] = assay: ATP increase, 48 h incubation with CoCl2 comparison (luminescence); type: cell-based; conditions: 10 μM, vs CoCl2 100 μM
# Protocol: This study was performed to further investigate the origin of ATP production that is influenced by vitamin K2 (MK-7). To perform this study, VSCMs (5000 cells/well) were plated in 96-well plates and left to adhere overnight. Next, cells were incubated for 48 hours with either vehicle, CoCl2 (100 μM), vitamin K2 (MK-7) (10 μM), or UQ10 (10 μM). Hoechst was added to correct for cell number (1 μg/mL). Next, ATP was measured using mammalian lysis buffer for 5 minutes, after which 50 μL ATP substrate solution was added to the wells and incubated for 10 minutes in a dark environment. Finally, medium was transferred to a white plate to measure luminescence.
# VSMCs [3] = assay: Hypoxia (CoCl2) induced oxidative stress in VSMCs (DCFDA); type: cell-based; conditions: 10 μM, after 50 μM CoCl2 for 19 hours
# Protocol: This study was performed to determine whether intracellular oxidative stress in VSCMs is derived from mitochondrial dysfunction. To perform this study, VSMCs were incubated with cobalt chloride, a known stabilizer of HIF1a. Cobalt chloride binding to HIF1a prevents the degradation of HIF1a and thus results in a cellular hypoxia state. HIF1a has been implicated in cancer biology as well as a number of other pathophysiologies, specifically in areas of vascularization and angiogenesis, energy metabolism, cell survival, and tumor invasion. Under normal circumstances, after injury, HIF1a is degraded by the enzyme prolyl hydroxylase (PHD). The continued up-regulation of HIF1 a (mimicked by cobalt chloride) promotes tumor growth and metastasis through its role in initiating angiogenesis and regulating cellular metabolism to overcome hypoxia. Hypoxia promotes apoptosis in both normal and tumor cells. Additionally, hypoxia generates significant intracellular oxidative stress.
# To perform the study, VSMCs (10,000 cells/well) were plated in a 96-well plate and left to adhere overnight. Next, the medium was changed to a medium supplemented with 50 μM CoCl2 for 19 hours. The next day, cells were washed and incubated for 1 hour with 20 μM DCFDA in the presence of a vehicle (solvent for CoCl2 and vitamin K2 (MK-7)/UQ10), 10 μM vitamin K2 (MK-7), or 10 μM UQ10 in medium. The medium was then changed to a medium supplemented with vehicle, vitamin K2 (MK-7)/UQ10, or CoCl2, and fluorescent was measured for 6 hours. Fluorescence intensity was normalized for cell count.
smiles,measurement,setting,value
CC(C)=CCC/C(C)=C/CC/C(C)=C/CC/C(C)=C/CC/C(C)=C/CC/C(C)=C/CC/C(C)=C/CC1=C(C)C(=O)c2ccccc2C1=O [vitamin K2 (MK-7)],formation of a clot (AUC) on addition of vitamin K2 (MK-7),Sprague-Dawley rats,did not prevent the formation of a clot
same,increase of occlusion Time (OT) on addition of vitamin K2 (MK-7),Sprague-Dawley rats,5-7%
same,ATP production in VSMCs over time,VSMCs [1],stimulated ATP production in VSMCs
same,ATP levels compared to CoCl2,VSMCs [2],significant higher ATP levels
same,hypoxia induced oxidative stress (counteraction),VSMCs [3],seems to counteract hypoxia induced oxidative stress
